# According to patent US11702632B2, “Ex vivo method of generating super regulatory T cells for the prevention of autoimmune disease” (University of Massachusetts, priority 2017, dated 2023):
# System: humanized mouse model of GvHD
# Assay: Ex vivo-treated hPBMCs transferred into NSG mice, assessment of GvHD
# Assay type: in vivo
# Experimental: Animal protocols were approved by the Institutional Animal Care and use Committee of the University of Massachusetts Amherst. […] 10×10^6 treated hPBMCs in 150 μl of PBS were injected into mice via the tail vein.
# Clinical score was generated by adding grades for five criteria.
# IL-2 and IFNγ cytokine levels in plasma collected from NSG mice were determined by using human IFNγ and IL-2 Flex Sets (BD Biosciences). Data were acquired using a Fortessa 5 Laser Flow Cytometer (BD Biosciences) and analyzed using FCAP array software (Soft Flow Inc.).
structure (smiles),measurement,setting,value
"CC(=O)c1c(O)c(C)c(O)c(Cc2c(O)c3c(c(C(=O)/C=C/c4ccccc4)c2O)OC(C)(C)C=C3)c1O [rottlerin, Rottlerin]",mice without overt signs of disease,"hPBMCs pre-treated, no human cells detected on day +70",Two of three
same,toxicity to hPBMCs,pre-treated hPBMCs,cytotoxic effects on hPBMCs
